Source: ChEMBL document CHEMBL1131537, “Synthesis of [(2'S, 3'S)-bis(hydroxylmethyl)pyrrolidin-1-yl] purine and pyrimidine nucleosides as potential antiviral agents” (Bioorg Med Chem Lett, 1998)
The source made the active and inactive calls.

What was measured:
Format in all cases: functional, cell-based
MT4 = experiment: […] was evaluated against HIV-1 in MT-4 cells at concentration up to 10 ug/mL by indirect immunofluorescence assay; Inactive; details: Homo sapiens
Vero [1] = experiment: Antiviral activity was evaluated against HSV-2 in Vero cells at concentration up to 10 ug/mL by plaque reduction assay; Inactive; details: Chlorocebus sabaeus
Vero [2] = experiment: Antiviral activity was evaluated against HSV-1 in Vero cells at concentration up to 10 ug/mL by plaque reduction assay; Inactive; details: Chlorocebus sabaeus

Measured: Activity

Nc1ncnc2c1ncn2N1CC[C@H](CO)[C@H]1CO
inactive: all assays above

Cc1cn(N2CC[C@H](CO)[C@H]2CO)c(=O)[nH]c1=O
inactive: all assays above
